Laboratory results reported in US20240325409A1, “Fused Heterotetracyclic Antiviral Agents” (Enanta Pharmaceuticals, Inc., priority 2023, published 2024).

Tested on: HDV
Test: HDV infection of HepG2-NTCP cells, viral RNA by RT-qPCR
Type: cell-based
Conditions: 288 h, 800 GE/cell, viral RNA at day 12 post infection, 50% reduction relative to DMSO controls, read-out: Cellular EC50
Protocol: (§1) HepG2-NTCP A3 cells were maintained in DMEM media supplemented with GlutaMAX™, 10% fetal bovine serum, 1% penicillin/streptomycin, and 5 ug/mL puromycin at 37° C. in a humidified atmosphere with 5% CO2 in a collagen-coated tissue culture flask.
HDV virus collected from the supernatants of HuH7-END cells was purified in the presence of 6% polyethylene glycol (PEG). Viral titer was then quantified by RT-qPCR using HDV specific primers against a reference standard. For HDV infection, HepG2-NTCP cells were seeded in 96-well plates at 60,000 cells/well. On the day of infection, compounds were 4-fold serially diluted in DMSO and pre-incubated with HepG2-NTCP cells for two hours before infecting with 800 GE/cell of HDV in 4% PEG. On day one post infection, HDV-containing media was aspirated, cells were washed once with PBS and then maintained in 2.5% DMSO containing media for the remainder of the assay. Viral RNA was isolated using RNeasy kits (Qiagen) at day 12 post infection and reverse transcribed into cDNA using High-Capacity RNA-to-cDNA Kit (Thermo Fisher). Relative HDV gene expression was quantified by RT-qPCR after normalization to expression of a housekeeping gene. Irrespective of readout, compound concentrations that reduce viral RNA by 50% relative to DMSO controls (EC50) are reported. EC50 ranges are as follows: A<0.1 µM; B 0.1-1 µM; C>1 µM.

With CN1[C@H](C2CCC2)CN(c2ccccc2)c2cc3c(cc2S1(=O)=O)-c1cc(C(=O)O)ccc1CO3 [Example 1, (R)-10-cyclobutyl-11-methyl-8-phenyl-8,9,10,11-tetrahydro-5H-benzo[3,4]chromeno[7,6-f][1,2,5]thiadiazepine-2-carboxylic acid 12,12-dioxide] the EC50 was less than 100 nM.

Tested on: HBV
Test: HBV infection of HepG2-NTCP cells, HBeAg AlphaLISA readout
Type: cell-based
Conditions: Hepatitis B virus, 192 h, 2000 GE/cell, HBeAg in supernatant at day 8 post infection, 50% reduction relative to DMSO controls, read-out: Cellular EC50
Protocol: as §1
HepG2-NTCP cells were seeded in 384 well plate containing 16,000 cells/well two days prior to the infection. On the day of infection, compounds were 3-fold serially diluted in DMSO and pre-incubated with HepG2-NTCP cells for two hours before purified HBV addition. HBV infection was carried out at 2000 GE/cell with 4% PEG, and the final concentration of DMSO is 0.5%. On day one post infection, HBV-containing media was aspirated, cells were washed once with PBS and then maintained in 2.5% DMSO containing media for the remainder of the assay.
Supernatants from infected HepG2-NTCP cells were collected at day 8 post infection, and the amount of viral antigen HBeAg was measured by HBeAg AlphaLISA detection kit (PerkinElmer) following the manufacturer's recommended protocol. Irrespective of readout, compound concentrations that reduce viral product accumulation in supernatants by 50% relative to DMSO controls (EC50) are reported. EC50 ranges are as follows: A<0.1 µM; B 0.1-1 µM; C>1 µM.

First: CN1[C@H](C2CCC2)CN(c2ccccc2)c2cc3c(cc2S1(=O)=O)-c1cc(C(=O)O)ccc1CO3 [Example 1, (R)-10-cyclobutyl-11-methyl-8-phenyl-8,9,10,11-tetrahydro-5H-benzo[3,4]chromeno[7,6-f][1,2,5]thiadiazepine-2-carboxylic acid 12,12-dioxide]
Second: CN1[C@H](C2CCC2)CN(c2ccccc2)c2cc3c(cc2S1(=O)=O)-c1sc(C(=O)O)cc1CO3 [Example 36, (R)-9-cyclobutyl-10-methyl-7-phenyl-7,8,9,10-tetrahydro-4H-thieno[3′,2′:3,4]chromeno[7,6-f][1,2,5]thiadiazepine-2-carboxylic acid 11,11-dioxide]
The EC50 of the first is higher: 100 to 1000 nM for the first, less than 100 nM for the second. The second is the more potent here.

Compared with CCCC[C@@H]1CN(c2ccccc2)c2cc3c(cc2S(=O)(=O)N1C)-c1cc(C(=O)O)ccc1OCCO3 [Example 35, (R)-12-butyl-13-methyl-10-phenyl-6,7,10,11,12,13-hexahydrobenzo[7′,8′][1,4]dioxocino[6′,5′:4,5]benzo[1,2-f][1,2,5]thiadiazepine-2-carboxylic acid 14,14-dioxide], CCCN1C[C@@H](CC(C)C)N(C)S(=O)(=O)c2cc3c(cc21)OCc1c-3cc(C(=O)O)c(F)c1F [Example 37] is lower in EC50: 100 to 1000 nM for the first, less than 100 nM for the second.

Compared with CC(C)C[C@@H]1CN(C2CC3(CCC3)C2)c2cc3c(cc2S(=O)(=O)N1C)-c1cc(C(=O)O)c(F)c(F)c1CO3 [Example 38], CC(C)C[C@@H]1CN(C2CCC2)c2cc3c(cc2S(=O)(=O)N1C)-c1cc(C(=O)O)c(F)c(F)c1CO3 [Example 39] is higher in EC50: less than 100 nM for the first, 100 to 1000 nM for the second. The first is the more potent here.

COC(C)(C)CN1C[C@@H](CC(C)C)N(C)S(=O)(=O)c2cc3c(cc21)OCc1c-3cc(C(=O)O)c(F)c1F [Example 40] showed an EC50 of 100 to 1000 nM.
